Measured values taken from PubChem BioAssay (NCI).
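Briefly, cells in 96-well plates were exposed to five compound concentrations for 48 h, and endpoints were estimated by linear interpolation. GI50 marks 50% less growth. TGI: total growth inhibition.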

What was measured:
Test in all cases: DTP human tumour cell line panel, 48 h
[1] = test system: SF-539 CNS
[2] = test system: OVCAR-8 ovarian
[3] = test system: KM12 colon
[4] = test system: CAKI-1 renal
[5] = test system: UACC-257 melanoma
[6] = test system: SNB-19 CNS
[7] = test system: HCC-2998 colon
[8] = test system: MDA-MB-435
[9] = test system: OVCAR-4 ovarian
[10] = test system: BT-549 breast

Structure (SMILES) | TGI [1] | TGI [2] | TGI [3] | TGI [4] | TGI [5] | TGI [6] | TGI [7] | GI50 [1] | GI50 [7] | GI50 [2] | GI50 [3] | GI50 [4] | GI50 [5] | GI50 [8] | TGI [8] | GI50 [6] | GI50 [9] | TGI [9] | GI50 [10] [µM] | TGI [10] [µM]
Cc1ccc([N+](=O)[O-])cc1NC(=O)c1cccc([N+](=O)[O-])c1O | 54.1 µM | > 100 µM | 87.2 µM | 89.7 µM | 39.5 µM | > 100 µM | – | – | – | – | – | – | – | – | – | – | – | – | – | –
Fc1ccccc1C1SCc2nc3ccccc3n21 (centres undefined) | > 100 µM | > 100 µM | > 100 µM | > 100 µM | > 100 µM | > 100 µM | > 100 µM | – | – | – | – | – | – | – | – | – | – | – | – | –
NC1=C(c2nc(-c3ccccc3)cs2)C(c2ccc(Br)cc2)c2c(c3ccccc3oc2=O)O1 (centres undefined) | > 150 µg/mL | > 150 µg/mL | > 150 µg/mL | > 150 µg/mL | > 150 µg/mL | > 150 µg/mL | > 150 µg/mL | 104 µg/mL | 130 µg/mL | 112 µg/mL | > 150 µg/mL | 70 µg/mL | > 150 µg/mL | > 150 µg/mL | > 150 µg/mL | 58.3 µg/mL | 34.3 µg/mL | 99.9 µg/mL | – | –
NCCN.NCCN.O=C([O-])CCl.O=C([O-])CCl.[Co+3].[O-][Cl+3]([O-])([O-])[O-] | > 100 µM | > 100 µM | > 100 µM | – | > 100 µM | > 100 µM | > 100 µM | > 100 µM | > 100 µM | > 100 µM | > 100 µM | – | > 100 µM | – | – | > 100 µM | > 100 µM | > 100 µM | – | –
O=S(=O)(c1cccc2c(Cl)cccc12)N1CCCNCC1 | 37.7 µM | 31.4 µM | 28.2 µM | 32.6 µM | 22.8 µM | 30.5 µM | – | 19.4 µM | – | 14.1 µM | 15 µM | 17.3 µM | 10.1 µM | 14.9 µM | 28.6 µM | 16.3 µM | 11.2 µM | 24.3 µM | 19.8 | 36.4
COc1ccc(S(=O)(=O)N/N=C/c2cc(I)cc([N+](=O)[O-])c2O)cc1OC | – | > 100 µM | > 100 µM | 85.3 µM | > 100 µM | 88.3 µM | > 100 µM | – | – | – | – | – | – | – | – | – | – | 70.3 µM | – | –
COc1ccc(CC(=O)NCCc2ccc(OC)c(OC)c2)cc1Br | > 100 µM | > 100 µM | > 100 µM | > 100 µM | > 100 µM | > 100 µM | > 100 µM | – | – | – | – | – | – | – | – | – | – | > 100 µM | – | –
Cc1cc(NS(=O)(=O)c2ccc(NC(=O)c3ccc(Cl)c4c(Nc5ccc(S(=O)(=O)N=C(N)N)cc5)c5ccccc5nc34)cc2)no1 | > 100 µM | > 100 µM | > 100 µM | – | > 100 µM | > 100 µM | 41.6 µM | – | – | – | – | – | – | – | – | – | – | > 100 µM | – | –
CN1CC[C@]2(C)c3cc(O)ccc3CC3CCCC1C32C (some centres undefined) | > 100 µM | > 100 µM | > 100 µM | > 100 µM | > 100 µM | > 100 µM | > 100 µM | – | – | – | – | – | – | – | – | – | – | – | – | –
COc1cc(C(O)C(=O)c2nc3ccc([N+](=O)[O-])cc3[nH]c2=O)ccc1O (centres undefined) | > 100 µM | > 100 µM | > 100 µM | > 100 µM | – | > 100 µM | > 100 µM | – | – | – | – | – | – | – | – | – | – | > 100 µM | – | –
CC(C)(CN1CCCCC1)C(=O)/C=C/c1ccc(Cl)cc1 | 5.41 µM | 5.51 µM | 11.2 µM | – | 19.9 µM | 17 µM | 26.3 µM | – | – | – | – | – | – | – | – | – | – | 16 µM | – | –
Cc1c(C(=O)CC(=O)C(=O)Nc2ccc(Cl)cc2)[n+](=O)c2ccccc2n1[O-] | > 100 µM | > 100 µM | > 100 µM | > 100 µM | > 100 µM | > 100 µM | – | – | – | – | – | – | – | – | – | – | – | > 100 µM | – | –
COC(=O)C1=C(C(=O)OC)SC(=C(Cl)C(=S)Nc2ccccc2O)S1 | 39 µM | > 50 µM | > 50 µM | 21.8 µM | 26.3 µM | > 50 µM | – | 15.9 µM | – | 25.3 µM | 0.132 µM | 9.63 µM | 12.4 µM | 3.82 µM | 17 µM | 18 µM | 35.5 µM | > 50 µM | 2.34 | 35.5
CC(NCCC(=O)N(CCC(=O)N(CCC(=O)N(CCC(=O)N(CCC(=O)N(CCC(=O)N(CCC(=O)N(CCC(=O)N(CCC(=O)N(CCC(=O)O)[C@H](C)c1ccccc1)[C@H](C)c1ccccc1)[C@H](C)c1ccccc1)[C@H](C)c1ccccc1)[C@H](C)c1ccccc1)[C@H](C)c1ccccc1)[C@H](C)c1ccccc1)[C@H](C)c1ccccc1)[C@H](C)c1ccccc1)c1ccccc1 (some centres undefined) | 3.67 µM | > 47.1 µM | 4.9 µM | > 45.1 µM | 4.15 µM | > 75 µM | 3.11 µM | 1.49 µM | 1.38 µM | 3.45 µM | 1.76 µM | 3.49 µM | 1.76 µM | 1.71 µM | > 16.1 µM | > 19.1 µM | 2.48 µM | > 68.7 µM | – | –
C/C=C1/CCC2c3[nH]c4ccccc4c3CCN2C1 (centres undefined) | > 100 µM | > 100 µM | > 100 µM | > 100 µM | > 100 µM | > 100 µM | – | – | – | – | – | – | – | – | – | – | – | > 100 µM | – | –
C=C1C(=O)OC2C=C(CCC(C)=O)C(C)C(OC(C)=O)CC12 (centres undefined) | 28.5 µM | 36 µM | 30.5 µM | 23.6 µM | – | 37.2 µM | 21.5 µM | – | – | – | – | – | – | – | – | – | – | 27.7 µM | – | –
COc1ccc(S(=O)(=O)Nc2cc(/C=C\c3cc(OC)c(OC)c(OC)c3)ccc2OC)cc1 | 0.713 µM | > 100 µM | > 100 µM | 20.6 µM | 93.4 µM | > 100 µM | > 100 µM | 0.126 µM | 0.442 µM | 0.276 µM | 0.0738 µM | 0.0515 µM | 2.98 µM | – | – | 0.352 µM | 0.581 µM | > 100 µM | 0.197 | > 100
O=C(O)CCC(NC(=O)c1ccccc1)C(=O)O (centres undefined) | > 100 µM | > 100 µM | > 100 µM | > 100 µM | > 100 µM | > 100 µM | > 100 µM | – | – | – | – | – | – | – | – | – | – | > 100 µM | – | –
